Results published in the supplement of paper PMC11424490.

Legend:
NCI-H2122 [1] = test: combination cScore with sotorasib (Bliss gap around IC50) (%PoC); higher = stronger additive effect
Protocol: (§1)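 Combination screen of 179 inhibitors with the KRAS G12C inhibitor sotorasib (AMG510) in dose matrices, CellTiter-Glo readout in NCI-H2122 (72 h), SW837 (144 h) and NCI-H358 cells. The cScore is the mean Bliss-independence gap (expected minus observed viability, in %PoC) over a 3x3 field around the IC50s of both drugs. Positive means additive, and >~10 is stated as clear additive.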

SW837 [2] = test: as above
Protocol: as §1

NCI-H2122 [3] = test: combination cScore with adagrasib (Bliss gap around IC50) (%PoC); higher = stronger additive effect
Procedure, shortened: (§2)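 NCI-H2122, NCI-H358 and SW837 cells (500 or 800 per well, 384-well plates) were dosed in concentration matrices after 24 h and grown 72 h, or 144 h for SW837. CellTiter-Glo luminescence was normalised to vehicle wells as percent of control and fitted with four-parameter curves. The score averages the Bliss-independence gap (expected minus measured viability) over a field around both monotherapy IC50s, or at the top concentrations when no IC50 was reached.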

SW837 [4] = test: as above
Procedure, shortened: as §2

SMILES: CC(C)(C(=O)NCC(F)(F)C(F)(F)F)C(=O)N[C@@H]1C(=O)Nc2ccccc2-c2ccccc21 + C=CC(=O)N1CCN(c2nc(=O)n(-c3c(C)ccnc3C(C)C)c3nc(-c4c(O)cccc4F)c(F)cc23)[C@@H](C)C1 [sotorasib]
- combination cScore with sotorasib (NCI-H2122 [1]): 2.56
- combination cScore with sotorasib (SW837 [2]): 21.5

SMILES: CCc1cnn2c(NCc3ccc[n+]([O-])c3)cc(N3CCCC[C@H]3CCO)nc12 + C=CC(=O)N1CCN(c2nc(=O)n(-c3c(C)ccnc3C(C)C)c3nc(-c4c(O)cccc4F)c(F)cc23)[C@@H](C)C1 [sotorasib]
- combination cScore with sotorasib (NCI-H2122 [1]): 7.04
- combination cScore with sotorasib (SW837 [2]): 2.65

SMILES: CN(C)CCCC(=O)Nc1n[nH]c2nnc(-c3ccccc3)cc12 + C=CC(=O)N1CCN(c2nc(=O)n(-c3c(C)ccnc3C(C)C)c3nc(-c4c(O)cccc4F)c(F)cc23)[C@@H](C)C1 [sotorasib]
- combination cScore with sotorasib (NCI-H2122 [1]): -11.8
- combination cScore with sotorasib (SW837 [2]): -4.53

SMILES: COc1ccc(Cn2ccc3ccc(C(=O)NO)cc32)cc1 + C=CC(=O)N1CCN(c2nc(=O)n(-c3c(C)ccnc3C(C)C)c3nc(-c4c(O)cccc4F)c(F)cc23)[C@@H](C)C1 [sotorasib]
- combination cScore with sotorasib (NCI-H2122 [1]): 0.89
- combination cScore with sotorasib (SW837 [2]): 10.9

SMILES: COc1ccc2nc3ccc(OC)cc3c(SCCCN)c2c1 + C=CC(=O)N1CCN(c2nc(=O)n(-c3c(C)ccnc3C(C)C)c3nc(-c4c(O)cccc4F)c(F)cc23)[C@@H](C)C1 [sotorasib]
- combination cScore with sotorasib (NCI-H2122 [1]): 11.5
- combination cScore with sotorasib (SW837 [2]): -2.67

SMILES: C[C@@H](Oc1cc(-c2cnn(C3CCNCC3)c2)cnc1N)c1c(Cl)ccc(F)c1Cl + C=CC(=O)N1CCN(c2nc(=O)n(-c3c(C)ccnc3C(C)C)c3nc(-c4c(O)cccc4F)c(F)cc23)[C@@H](C)C1 [sotorasib]
- combination cScore with sotorasib (NCI-H2122 [1]): 2.31
- combination cScore with sotorasib (SW837 [2]): 13.5

SMILES: Cc1[nH]c(/C=C2\C(=O)Nc3ccc(S(=O)(=O)Cc4c(Cl)cccc4Cl)cc32)c(C)c1C(=O)N1CCC[C@@H]1CN1CCCC1 + C=CC(=O)N1CCN(c2nc(=O)n(-c3c(C)ccnc3C(C)C)c3nc(-c4c(O)cccc4F)c(F)cc23)[C@@H](C)C1 [sotorasib]
- combination cScore with sotorasib (NCI-H2122 [1]): 0.62
- combination cScore with sotorasib (SW837 [2]): -0.04

SMILES: NC(=O)c1ccc(-c2nc(-c3ccccn3)c(-c3ccc4c(c3)OCO4)[nH]2)cc1 + C=CC(=O)N1CCN(c2nc(=O)n(-c3c(C)ccnc3C(C)C)c3nc(-c4c(O)cccc4F)c(F)cc23)[C@@H](C)C1 [sotorasib]
- combination cScore with sotorasib (NCI-H2122 [1]): 3.33
- combination cScore with sotorasib (SW837 [2]): 4.91

SMILES: NC(=O)c1cnc(N[C@@H]2CCCC[C@@H]2N)nc1Nc1cccc(-n2nccn2)c1 + C=CC(=O)N1CCN(c2nc(=O)n(-c3c(C)ccnc3C(C)C)c3nc(-c4c(O)cccc4F)c(F)cc23)[C@@H](C)C1 [sotorasib]
- combination cScore with sotorasib (NCI-H2122 [1]): 7.42
- combination cScore with sotorasib (SW837 [2]): -0.31

SMILES: O=[N+]([O-])c1ccc(NCCNc2ncc(-c3ncc[nH]3)c(-c3ccc(Cl)cc3Cl)n2)nc1 + C=CC(=O)N1CCN(c2nc(=O)n(-c3c(C)ccnc3C(C)C)c3nc(-c4c(O)cccc4F)c(F)cc23)[C@@H](C)C1 [sotorasib]
- combination cScore with sotorasib (NCI-H2122 [1]): -9.14
- combination cScore with sotorasib (SW837 [2]): 3.71

SMILES: On1ncc2cc(CCc3nn[nH]n3)ccc21 + C=CC(=O)N1CCN(c2nc(=O)n(-c3c(C)ccnc3C(C)C)c3nc(-c4c(O)cccc4F)c(F)cc23)[C@@H](C)C1 [sotorasib]
- combination cScore with sotorasib (NCI-H2122 [1]): -2.12
- combination cScore with sotorasib (SW837 [2]): -12.1

SMILES: c1ccc(-c2nn3c(c2-c2ccnc4cc(OCCN5CCOCC5)ccc24)CCC3)nc1 + C=CC(=O)N1CCN(c2nc(=O)n(-c3c(C)ccnc3C(C)C)c3nc(-c4c(O)cccc4F)c(F)cc23)[C@@H](C)C1 [sotorasib]
- combination cScore with sotorasib (NCI-H2122 [1]): 8.94
- combination cScore with sotorasib (SW837 [2]): 8.58

SMILES: CC1(C)CCC(CN2CCN(c3ccc(C(=O)NS(=O)(=O)c4ccc(NCC5CCOCC5)c([N+](=O)[O-])c4)c(Oc4cnc5[nH]ccc5c4)c3)CC2)=C(c2ccc(Cl)cc2)C1 [ABT-199] + C=CC(=O)N1CCN(c2nc(=O)n(-c3c(C)ccnc3C(C)C)c3nc(-c4c(O)cccc4F)c(F)cc23)[C@@H](C)C1 [sotorasib]
- combination cScore with sotorasib (NCI-H2122 [1]): 11.2
- combination cScore with sotorasib (SW837 [2]): -2.18

SMILES: CO[C@H]1/C=C/C[C@H](C)[C@@H](C)S(=O)(=O)NC(=O)c2ccc3c(c2)N(C[C@@H]2CC[C@H]21)C[C@@]1(CCCc2cc(Cl)ccc21)CO3 [AMG176] + C=CC(=O)N1CCN(c2nc(=O)n(-c3c(C)ccnc3C(C)C)c3nc(-c4c(O)cccc4F)c(F)cc23)[C@@H](C)C1 [sotorasib]
- combination cScore with sotorasib (NCI-H2122 [1]): 17.3
- combination cScore with sotorasib (SW837 [2]): 2.13

SMILES: COc1cc(OC2CCN(C)CC2)ccc1Nc1ncc2c(n1)n(C1CCCC1)c(=O)n2C [AZ3146] + C=CC(=O)N1CCN(c2nc(=O)n(-c3c(C)ccnc3C(C)C)c3nc(-c4c(O)cccc4F)c(F)cc23)[C@@H](C)C1 [sotorasib]
- combination cScore with sotorasib (NCI-H2122 [1]): 4.43
- combination cScore with sotorasib (SW837 [2]): 19.4

SMILES: Cc1cc(Nc2nc(N[C@@H](C)c3ncc(F)cn3)ncc2Cl)[nH]n1 [AZD-1480] + C=CC(=O)N1CCN(c2nc(=O)n(-c3c(C)ccnc3C(C)C)c3nc(-c4c(O)cccc4F)c(F)cc23)[C@@H](C)C1 [sotorasib]
- combination cScore with sotorasib (NCI-H2122 [1]): 5.41
- combination cScore with sotorasib (SW837 [2]): -5.71

SMILES: C[C@]1(c2nc3c(C(N)=O)cccc3[nH]2)CCCN1 [Veliparib] + C=C(F)C(=O)N1CCN(c2nc(OC[C@@H]3CCCN3C)nc3c2CCN(c2cccc4cccc(Cl)c24)C3)C[C@@H]1CC#N [adagrasib]
- combination cScore with adagrasib (NCI-H2122 [3]): -0.59
- combination cScore with adagrasib (SW837 [4]): 5.64

SMILES: CC[C@]1(O)C[C@@H]2CN(CCc3c([nH]c4ccccc34)[C@@](C(=O)OC)(c3cc4c(cc3OC)N(C)[C@H]3[C@@](O)(C(=O)OC)[C@H](OC(C)=O)[C@]5(CC)C=CCN6CC[C@]43[C@@H]65)C2)C1 [Vinblastine] + C=C(F)C(=O)N1CCN(c2nc(OC[C@@H]3CCCN3C)nc3c2CCN(c2cccc4cccc(Cl)c24)C3)C[C@@H]1CC#N [adagrasib]
- combination cScore with adagrasib (NCI-H2122 [3]): -3.66
- combination cScore with adagrasib (SW837 [4]): 4.5

SMILES: CCC1=C[C@@H]2CN(C1)Cc1c([nH]c3ccccc13)[C@@](C(=O)OC)(c1cc3c(cc1OC)N(C)[C@H]1[C@@](O)(C(=O)OC)[C@H](OC(C)=O)[C@]4(CC)C=CCN5CC[C@]31[C@@H]54)C2 [Vinorelbine] + C=C(F)C(=O)N1CCN(c2nc(OC[C@@H]3CCCN3C)nc3c2CCN(c2cccc4cccc(Cl)c24)C3)C[C@@H]1CC#N [adagrasib]
- combination cScore with adagrasib (NCI-H2122 [3]): -8.58
- combination cScore with adagrasib (SW837 [4]): 3.93

SMILES: CS(=O)(=O)c1ccc(C(=O)Nc2ccc(Cl)c(-c3ccccn3)c2)c(Cl)c1 [Vismodegib] + C=C(F)C(=O)N1CCN(c2nc(OC[C@@H]3CCCN3C)nc3c2CCN(c2cccc4cccc(Cl)c24)C3)C[C@@H]1CC#N [adagrasib]
- combination cScore with adagrasib (NCI-H2122 [3]): 3.61
- combination cScore with adagrasib (SW837 [4]): 15.7

SMILES: O=C(CCCCCCC(=O)Nc1ccccc1)NO [Vorinostat] + C=C(F)C(=O)N1CCN(c2nc(OC[C@@H]3CCCN3C)nc3c2CCN(c2cccc4cccc(Cl)c24)C3)C[C@@H]1CC#N [adagrasib]
- combination cScore with adagrasib (NCI-H2122 [3]): 1.67
- combination cScore with adagrasib (SW837 [4]): 14.9

SMILES: CN[C@H]1CN(c2ccc3c(=O)c(C(=O)O)cn(-c4nccs4)c3n2)C[C@@H]1OC [Vosaroxin] + C=C(F)C(=O)N1CCN(c2nc(OC[C@@H]3CCCN3C)nc3c2CCN(c2cccc4cccc(Cl)c24)C3)C[C@@H]1CC#N [adagrasib]
- combination cScore with adagrasib (NCI-H2122 [3]): 5.97
- combination cScore with adagrasib (SW837 [4]): 4.99

SMILES: COc1cc2nccc(Oc3ccc(NC(=O)C4(C(=O)Nc5ccc(F)cc5)CC4)cc3)c2cc1OC [XL-184] + C=C(F)C(=O)N1CCN(c2nc(OC[C@@H]3CCCN3C)nc3c2CCN(c2cccc4cccc(Cl)c24)C3)C[C@@H]1CC#N [adagrasib]
- combination cScore with adagrasib (NCI-H2122 [3]): 4.53
- combination cScore with adagrasib (SW837 [4]): 9.25
